The values that follow are results of earlier work, collected in patent US20230226121A1, “Honey Foam” (priority 2022, published 2023).

The subject of data set [1] is Staphylococcus aureus ATCC 29213.
The test system of data set [2] is Escherichia Coli ATCC 25922.

Take `CCN(CC)CC(=O)Nc1c(C)cccc1C` [lidocaine]: the MIC is 20 Mg/ml in data set [1] and 5 Mg/ml in data set [2].
